Results from patent US8962608B2, “Cycloalkylnitrile pyrazole carboxamides as janus kinase inhibitors” (Merck Sharp & Dohme Corp., priority 2011, dated 2015).

Tests used:
[1] = molecular target: JAK1 (recombinant purified GST-tagged catalytic domain) (Homo sapiens (Human), UniProt P23458);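 further: biochemical assay with HTRF read-out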
[2] = molecular target: JAK2 (recombinant purified GST-tagged catalytic domain) (Homo sapiens (Human), UniProt O60674);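 further: biochemical JAK kinase assay with HTRF detection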
JAK2 (recombinant purified GST-tagged catalytic domain), sequence (O60674 849-1124): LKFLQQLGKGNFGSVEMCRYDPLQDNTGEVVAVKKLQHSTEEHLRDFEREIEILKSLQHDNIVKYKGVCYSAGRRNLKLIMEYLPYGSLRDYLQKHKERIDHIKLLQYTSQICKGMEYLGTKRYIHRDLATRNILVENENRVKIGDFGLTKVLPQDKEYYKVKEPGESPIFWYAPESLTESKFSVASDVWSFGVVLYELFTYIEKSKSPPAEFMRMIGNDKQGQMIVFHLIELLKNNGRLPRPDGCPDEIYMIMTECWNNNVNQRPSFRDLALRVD

JAK1 (recombinant purified GST-tagged catalytic domain), sequence (P23458 875-1153): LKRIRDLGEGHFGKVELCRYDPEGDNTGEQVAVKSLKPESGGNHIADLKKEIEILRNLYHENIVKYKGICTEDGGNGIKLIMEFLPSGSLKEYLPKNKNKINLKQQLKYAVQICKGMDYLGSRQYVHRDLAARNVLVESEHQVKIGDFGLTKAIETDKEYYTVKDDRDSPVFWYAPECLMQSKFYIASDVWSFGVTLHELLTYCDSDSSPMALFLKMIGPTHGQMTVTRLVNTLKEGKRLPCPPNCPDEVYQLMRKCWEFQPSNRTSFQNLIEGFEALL

Row | IC50 [1] [nM] | IC50 [2] [nM] | Structure (SMILES)
1 | 54 | 176 | CC1(C)CC[C@H](C#N)[C@@H](n2cc(C(N)=O)c(Nc3ccccc3)n2)C1 (mixture of isomers) [Example 11-1, 1-{[(1S,2S) and (1R,2R)]-2-Cyano-5,5-dimethylcyclohexyl}-3-(phenylamino)-1H-pyrazole-4-carboxamide]
2 | 11 | 50 | CC1(C)CC[C@@H](C#N)[C@@H](n2cc(C(N)=O)c(Nc3ccccc3)n2)C1 (mixture of isomers) [Example 11-2, 1-{[(1S,2R) and (1R,2S)]-2-Cyano-5,5-dimethylcyclohexyl}-3-(phenylamino)-1H-pyrazole-4-carboxamide]
3 | 158 | > 1500 | CC(C)(C)OC(=O)NCC1CC[C@@H](C#N)[C@@H](n2cc(C(N)=O)c(Nc3ccc(F)cc3)n2)C1 (mixture of isomers) [Example 11-8, tert-butyl {[(3S,4R) and (3R,4S)]-3-{4-carbamoyl-3-[(4-fluorophenyl)amino]-1H-pyrazol-1-yl}-4-cyanocyclohexyl]methyl}carbamate]
4 | 7 | 50 | CC(C)(C)OC(=O)C1CC[C@H](C#N)[C@@H](n2cc(C(N)=O)c(Nc3ccccc3)n2)C1 (mixture of isomers) [Example 12-1, (3S,4S and 3R,4R)-tert-butyl 3-(4-carbamoyl-3-(phenylamino)-1H-pyrazol-1-yl)-4-cyanocyclohexanecarboxylate]
5 | 257 | > 1500 | CC(C)(C)OC(=O)C1CC[C@@H](C#N)[C@@H](n2cc(C(N)=O)c(Nc3ccccc3)n2)C1 (mixture of isomers) [Example 12-2, (3S,4R and 3R,4S)-tert-butyl 3-(4-carbamoyl-3-(phenylamino)-1H-pyrazol-1-yl)-4-cyanocyclohexanecarboxylate]

More lines, now with the values behind:

Row | Structure (SMILES) | IC50 [1] [nM] | IC50 [2] [nM]
6 | CN(C)[C@H]1CC[C@H](C#N)[C@@H](n2cc(C(N)=O)c(Nc3ccc(F)cc3)n2)C1 (mixture of isomers) [Example 6-1, 1-[(1S,2S,5S and 1R,2R,5R)-2-cyano-5-(dimethylamino)cyclohexyl]-3-[(4-fluorophenyl)amino]-1H-pyrazole-4-carboxamide] | 410 | > 1500
7 | CN(C)[C@@H]1CC[C@H](C#N)[C@@H](n2cc(C(N)=O)c(Nc3ccc(F)cc3)n2)C1 (mixture of isomers) [Example 6-2, 1-[(1S,2S,5R and 1R,2R,5S)-2-cyano-5-(dimethylamino)cyclohexyl]-3-[(4-fluorophenyl)amino]-1H-pyrazole-4-carboxamide] | 305 | > 1500
8 | CN[C@@H]1CC[C@H](C#N)[C@@H](n2cc(C(N)=O)c(Nc3ccc(F)cc3)n2)C1 (mixture of isomers) [Example 6-3, 1-{[(1S,2S,5R) and (1R,2R,5S)]-2-cyano-5-(methylamino)cyclohexyl}-3-[(4-fluorophenyl)amino]-1H-pyrazole-4-carboxamide] | 250 | > 1500
9 | N#C[C@H]1CC[C@H](NCc2ccccc2)C[C@@H]1n1cc(C(N)=O)c(Nc2ccc(F)cc2)n1 (mixture of isomers) [Example 6-4, 1-{[(1S,2S,5S) and (1R,2R,5R)]-5-(benzylamino)-2-cyanocyclohexyl}-3-[(4-fluorophenyl)amino]-1H-pyrazole-4-carboxamide] | 4 | 55
10 | CN[C@H]1CC[C@H](C#N)[C@@H](n2cc(C(N)=O)c(Nc3ccc(F)cc3)n2)C1 (mixture of isomers) [Example 6-5, 1-{[(1S,2S,5S) and (1R,2R,5R)-2-cyano-5-(methylamino)cyclohexyl]-3-[(4-fluorophenyl)amino]-1H-pyrazole-4-carboxamide] | 410 | > 1500
11 | N#C[C@H]1CC[C@@H](NCc2ccccc2)C[C@@H]1n1cc(C(N)=O)c(Nc2ccc(F)cc2)n1 (mixture of isomers) [Example 6-6, 1-{[(1S,2S,5R) and (1R,2R,5S)]-5-(benzylamino)-2-cyanocyclohexyl}-3-[(4-fluorophenyl)amino]-1H-pyrazole-4-carboxamide] | 11 | 170
